Data on 8 molecules can be found in ChEMBL document CHEMBL5465560, “Selectivity Literature for EUbOPEN Chemogenomic Library” (2024).

The target of series [1] is Voltage-dependent L-type calcium channel subunit alpha-1C (Homo sapiens, UniProt Q13936). Kind of series: Selectivity interaction (Panel of non-epigenetic targets (kinases, GPCRs, ion channels, and transporters, Eurofins) ) EUB0000271b CACNA1C. To be noted: at 1 µM.
Series [2] has as its target T1, Serine/threonine-protein kinase TNNI3K (Homo sapiens) (UniProt Q59H18).
T1 sequence (whole entry): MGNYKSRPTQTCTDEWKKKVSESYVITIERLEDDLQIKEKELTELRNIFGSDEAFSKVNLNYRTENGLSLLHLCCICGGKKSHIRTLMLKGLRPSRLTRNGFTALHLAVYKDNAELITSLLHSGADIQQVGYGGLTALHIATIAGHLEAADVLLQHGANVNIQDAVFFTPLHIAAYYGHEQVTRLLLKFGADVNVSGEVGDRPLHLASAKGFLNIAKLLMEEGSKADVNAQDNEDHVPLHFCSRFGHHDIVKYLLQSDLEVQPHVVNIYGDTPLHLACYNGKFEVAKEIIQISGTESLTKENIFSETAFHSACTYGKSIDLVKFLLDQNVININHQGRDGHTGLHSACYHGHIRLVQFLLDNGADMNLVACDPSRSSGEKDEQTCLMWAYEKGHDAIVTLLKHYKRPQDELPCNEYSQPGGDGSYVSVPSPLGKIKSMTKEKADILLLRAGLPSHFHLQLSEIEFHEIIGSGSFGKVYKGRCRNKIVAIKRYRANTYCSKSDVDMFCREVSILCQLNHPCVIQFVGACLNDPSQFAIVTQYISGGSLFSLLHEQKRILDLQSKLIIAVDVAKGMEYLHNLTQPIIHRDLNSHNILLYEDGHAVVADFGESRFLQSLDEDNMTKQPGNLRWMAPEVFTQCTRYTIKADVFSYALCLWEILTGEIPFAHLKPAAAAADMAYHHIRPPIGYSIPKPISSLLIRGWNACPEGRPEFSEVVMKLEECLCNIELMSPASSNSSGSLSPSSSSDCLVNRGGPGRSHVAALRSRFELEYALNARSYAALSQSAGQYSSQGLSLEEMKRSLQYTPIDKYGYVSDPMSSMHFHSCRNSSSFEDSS
Kind of series: Selectivity interaction (KinomeScan (DiscoverX)) EUB0001079a TNNI3K. Conditions: at 1 µM.

In series [3] the target is Tyrosine-protein kinase ABL1 (Homo sapiens, UniProt P00519). Kind of series: Selectivity interaction (KinomeScan (DiscoverX)) EUB0001079a ABL1. Conditions: at 1 µM.
The target in series [4] is T2, Ephrin type-B receptor 6 (Homo sapiens) (UniProt O15197).
T2 sequence (whole entry): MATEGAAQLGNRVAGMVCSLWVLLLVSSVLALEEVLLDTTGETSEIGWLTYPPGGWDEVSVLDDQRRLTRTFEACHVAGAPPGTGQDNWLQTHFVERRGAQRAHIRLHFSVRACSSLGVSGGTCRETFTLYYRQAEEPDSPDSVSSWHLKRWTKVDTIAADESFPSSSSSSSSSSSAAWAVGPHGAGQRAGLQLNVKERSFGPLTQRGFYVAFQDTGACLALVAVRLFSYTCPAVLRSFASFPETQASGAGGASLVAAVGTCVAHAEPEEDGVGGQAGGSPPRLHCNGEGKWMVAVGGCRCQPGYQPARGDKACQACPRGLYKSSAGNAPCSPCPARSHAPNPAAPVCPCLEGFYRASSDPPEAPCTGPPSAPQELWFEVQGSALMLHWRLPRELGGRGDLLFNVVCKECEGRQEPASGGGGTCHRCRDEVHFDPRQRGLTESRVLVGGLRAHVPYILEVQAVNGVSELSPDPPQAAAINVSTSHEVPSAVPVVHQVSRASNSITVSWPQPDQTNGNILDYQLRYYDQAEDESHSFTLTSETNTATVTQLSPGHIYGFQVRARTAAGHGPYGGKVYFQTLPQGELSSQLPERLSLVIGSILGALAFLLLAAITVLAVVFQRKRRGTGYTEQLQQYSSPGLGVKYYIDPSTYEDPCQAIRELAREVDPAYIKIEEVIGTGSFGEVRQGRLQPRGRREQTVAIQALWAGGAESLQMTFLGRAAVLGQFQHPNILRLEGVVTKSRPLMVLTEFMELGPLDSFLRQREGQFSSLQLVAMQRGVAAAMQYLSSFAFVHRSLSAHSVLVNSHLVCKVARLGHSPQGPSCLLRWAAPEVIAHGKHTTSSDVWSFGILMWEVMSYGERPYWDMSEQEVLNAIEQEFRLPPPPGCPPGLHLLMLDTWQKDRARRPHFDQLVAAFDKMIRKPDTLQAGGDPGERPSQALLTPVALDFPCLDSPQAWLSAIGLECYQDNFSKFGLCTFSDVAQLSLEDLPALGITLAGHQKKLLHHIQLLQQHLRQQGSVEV
Kind of series: Selectivity interaction (KinomeScan (DiscoverX)) EUB0001619a EPHB6. To be noted: at 1 µM.

The target of series [5] is Calcium/calmodulin-dependent protein kinase type 1 (Homo sapiens) (UniProt Q14012). Kind of series: Selectivity interaction (ActivX KiNativ screen (kinase selectivity in THP-1 cell lysates)) EUB0000639a CAMK1. Format: subcellular. To be noted: lysate.
Series [6] concerns the target 5'-AMP-activated protein kinase catalytic subunit alpha-1 (Homo sapiens, UniProt Q13131). Kind of series: Selectivity interaction (ActivX KiNativ screen (kinase selectivity in THP-1 cell lysates)) EUB0000639a PRKAA1. Format: subcellular. Conditions: lysate, at 0.2 µM.
The target of series [7] is High affinity nerve growth factor receptor (Homo sapiens, UniProt P04629).
Series [8] addresses Bromodomain-containing protein 2 (Homo sapiens) (UniProt P25440). Kind of series: Selectivity interaction (Bromodomain panel (DSF asssay)) EUB0000270b BRD2.
The target of series [9] is T3, Serine/threonine-protein kinase ULK3 (Homo sapiens) (UniProt Q6PHR2).
T3 sequence (whole entry): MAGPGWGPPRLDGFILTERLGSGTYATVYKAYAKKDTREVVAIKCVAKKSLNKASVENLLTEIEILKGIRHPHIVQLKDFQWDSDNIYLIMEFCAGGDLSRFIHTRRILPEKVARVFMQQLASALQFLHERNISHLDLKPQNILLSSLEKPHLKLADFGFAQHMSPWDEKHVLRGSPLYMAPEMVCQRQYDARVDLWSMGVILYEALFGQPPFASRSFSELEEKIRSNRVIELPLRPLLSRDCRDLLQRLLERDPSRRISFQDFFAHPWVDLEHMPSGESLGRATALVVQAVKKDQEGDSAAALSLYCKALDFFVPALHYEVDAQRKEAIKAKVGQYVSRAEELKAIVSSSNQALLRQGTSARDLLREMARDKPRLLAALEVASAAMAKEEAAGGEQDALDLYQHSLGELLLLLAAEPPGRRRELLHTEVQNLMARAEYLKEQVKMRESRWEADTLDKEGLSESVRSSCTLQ
Kind of series: Selectivity interaction (KinomeScan (DiscoverX)) EUB0000045b ULK3.

The target in series [10] is Tyrosine-protein kinase Lck (Homo sapiens, UniProt P06239). Kind of series: Selectivity interaction (KinomeScan (DiscoverX)) EUB0000618a LCK. Conditions: at 10 µM.

Each structure is given as a SMILES string. Where only a bound is given, the exact number is not on record here.

Sequence of Calcium/calmodulin-dependent protein kinase type 1 (Homo sapiens) (Q14012 whole entry, looked up): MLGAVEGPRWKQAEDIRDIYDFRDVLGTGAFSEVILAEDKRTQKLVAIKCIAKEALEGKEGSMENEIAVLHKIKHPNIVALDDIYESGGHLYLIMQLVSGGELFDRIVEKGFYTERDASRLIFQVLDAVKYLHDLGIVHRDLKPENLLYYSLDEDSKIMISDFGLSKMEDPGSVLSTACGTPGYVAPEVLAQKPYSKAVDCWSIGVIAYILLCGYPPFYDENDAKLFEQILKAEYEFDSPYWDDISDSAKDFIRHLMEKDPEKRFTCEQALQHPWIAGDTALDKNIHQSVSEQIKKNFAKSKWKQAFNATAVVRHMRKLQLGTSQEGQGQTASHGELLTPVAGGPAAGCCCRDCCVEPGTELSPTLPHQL
Sequence of 5'-AMP-activated protein kinase catalytic subunit alpha-1 (Q13131 whole entry, looked up): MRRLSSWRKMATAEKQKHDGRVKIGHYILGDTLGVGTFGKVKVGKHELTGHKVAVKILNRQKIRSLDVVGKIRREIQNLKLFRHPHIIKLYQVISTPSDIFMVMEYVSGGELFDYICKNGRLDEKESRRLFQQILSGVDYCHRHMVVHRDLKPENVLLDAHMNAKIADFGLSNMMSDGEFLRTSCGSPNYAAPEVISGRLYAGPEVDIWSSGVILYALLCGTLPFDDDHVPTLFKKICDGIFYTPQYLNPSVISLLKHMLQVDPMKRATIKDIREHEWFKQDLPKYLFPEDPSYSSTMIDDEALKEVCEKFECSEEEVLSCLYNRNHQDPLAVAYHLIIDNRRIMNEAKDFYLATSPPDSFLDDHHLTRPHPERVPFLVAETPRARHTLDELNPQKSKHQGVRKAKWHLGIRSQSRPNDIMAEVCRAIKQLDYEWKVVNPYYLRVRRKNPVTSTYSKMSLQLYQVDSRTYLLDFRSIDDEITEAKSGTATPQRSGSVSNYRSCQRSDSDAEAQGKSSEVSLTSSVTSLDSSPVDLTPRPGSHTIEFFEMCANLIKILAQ
Sequence of Voltage-dependent L-type calcium channel subunit alpha-1C (Q13936 whole entry): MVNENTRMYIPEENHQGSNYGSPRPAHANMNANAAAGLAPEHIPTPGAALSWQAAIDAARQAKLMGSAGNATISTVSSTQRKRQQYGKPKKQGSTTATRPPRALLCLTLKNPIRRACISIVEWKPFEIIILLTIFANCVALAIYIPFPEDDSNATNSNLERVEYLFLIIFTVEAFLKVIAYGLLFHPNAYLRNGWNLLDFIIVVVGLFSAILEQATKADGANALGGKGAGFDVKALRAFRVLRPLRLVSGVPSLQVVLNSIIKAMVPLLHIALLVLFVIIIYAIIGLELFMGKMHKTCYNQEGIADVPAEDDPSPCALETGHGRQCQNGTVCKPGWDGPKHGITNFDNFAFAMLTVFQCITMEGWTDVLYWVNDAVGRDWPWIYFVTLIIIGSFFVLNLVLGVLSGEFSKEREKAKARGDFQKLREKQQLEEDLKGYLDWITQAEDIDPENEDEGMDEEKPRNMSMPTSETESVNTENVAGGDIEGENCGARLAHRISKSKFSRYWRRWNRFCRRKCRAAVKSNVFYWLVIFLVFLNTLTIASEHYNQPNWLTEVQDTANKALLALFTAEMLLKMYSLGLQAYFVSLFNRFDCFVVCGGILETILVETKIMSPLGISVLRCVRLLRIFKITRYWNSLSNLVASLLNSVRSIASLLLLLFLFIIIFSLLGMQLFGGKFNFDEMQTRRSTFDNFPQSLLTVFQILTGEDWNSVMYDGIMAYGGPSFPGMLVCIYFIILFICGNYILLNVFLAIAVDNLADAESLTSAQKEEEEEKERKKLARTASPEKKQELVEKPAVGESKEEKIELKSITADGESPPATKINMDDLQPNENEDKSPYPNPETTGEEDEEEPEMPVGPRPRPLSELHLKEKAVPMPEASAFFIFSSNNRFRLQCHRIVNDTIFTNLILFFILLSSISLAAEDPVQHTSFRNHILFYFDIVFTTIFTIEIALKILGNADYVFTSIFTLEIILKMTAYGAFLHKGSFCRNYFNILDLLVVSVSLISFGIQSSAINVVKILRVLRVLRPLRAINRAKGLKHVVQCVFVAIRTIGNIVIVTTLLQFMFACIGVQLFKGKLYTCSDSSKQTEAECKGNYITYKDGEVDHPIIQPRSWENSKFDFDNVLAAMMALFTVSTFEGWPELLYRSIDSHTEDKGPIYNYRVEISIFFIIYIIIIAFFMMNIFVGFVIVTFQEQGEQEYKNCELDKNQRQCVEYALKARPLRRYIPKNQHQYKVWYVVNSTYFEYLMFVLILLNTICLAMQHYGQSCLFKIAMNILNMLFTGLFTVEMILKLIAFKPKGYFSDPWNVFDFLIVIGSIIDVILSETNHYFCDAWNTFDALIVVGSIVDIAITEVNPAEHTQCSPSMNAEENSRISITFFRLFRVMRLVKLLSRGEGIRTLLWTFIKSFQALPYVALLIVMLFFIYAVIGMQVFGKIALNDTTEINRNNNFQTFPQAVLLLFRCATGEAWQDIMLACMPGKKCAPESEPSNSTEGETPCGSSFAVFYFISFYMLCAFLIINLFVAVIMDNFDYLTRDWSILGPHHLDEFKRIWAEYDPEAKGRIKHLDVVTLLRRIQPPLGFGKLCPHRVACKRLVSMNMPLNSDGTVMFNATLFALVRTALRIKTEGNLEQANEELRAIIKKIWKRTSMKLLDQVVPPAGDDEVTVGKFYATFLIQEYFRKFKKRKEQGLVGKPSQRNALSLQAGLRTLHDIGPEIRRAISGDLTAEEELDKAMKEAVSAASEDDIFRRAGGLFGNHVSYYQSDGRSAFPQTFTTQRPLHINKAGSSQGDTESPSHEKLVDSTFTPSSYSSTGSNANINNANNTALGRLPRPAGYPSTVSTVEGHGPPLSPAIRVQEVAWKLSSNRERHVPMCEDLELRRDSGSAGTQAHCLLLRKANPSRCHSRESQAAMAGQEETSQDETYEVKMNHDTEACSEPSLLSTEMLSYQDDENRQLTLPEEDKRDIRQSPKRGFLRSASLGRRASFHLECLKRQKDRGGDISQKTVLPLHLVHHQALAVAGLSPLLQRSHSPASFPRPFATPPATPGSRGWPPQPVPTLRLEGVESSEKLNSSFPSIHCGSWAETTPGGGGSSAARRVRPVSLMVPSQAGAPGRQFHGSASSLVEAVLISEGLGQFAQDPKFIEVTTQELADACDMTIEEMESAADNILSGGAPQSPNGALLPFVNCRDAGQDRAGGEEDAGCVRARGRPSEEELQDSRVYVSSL
Sequence of Bromodomain-containing protein 2 (Homo sapiens) (P25440 whole entry, looked up): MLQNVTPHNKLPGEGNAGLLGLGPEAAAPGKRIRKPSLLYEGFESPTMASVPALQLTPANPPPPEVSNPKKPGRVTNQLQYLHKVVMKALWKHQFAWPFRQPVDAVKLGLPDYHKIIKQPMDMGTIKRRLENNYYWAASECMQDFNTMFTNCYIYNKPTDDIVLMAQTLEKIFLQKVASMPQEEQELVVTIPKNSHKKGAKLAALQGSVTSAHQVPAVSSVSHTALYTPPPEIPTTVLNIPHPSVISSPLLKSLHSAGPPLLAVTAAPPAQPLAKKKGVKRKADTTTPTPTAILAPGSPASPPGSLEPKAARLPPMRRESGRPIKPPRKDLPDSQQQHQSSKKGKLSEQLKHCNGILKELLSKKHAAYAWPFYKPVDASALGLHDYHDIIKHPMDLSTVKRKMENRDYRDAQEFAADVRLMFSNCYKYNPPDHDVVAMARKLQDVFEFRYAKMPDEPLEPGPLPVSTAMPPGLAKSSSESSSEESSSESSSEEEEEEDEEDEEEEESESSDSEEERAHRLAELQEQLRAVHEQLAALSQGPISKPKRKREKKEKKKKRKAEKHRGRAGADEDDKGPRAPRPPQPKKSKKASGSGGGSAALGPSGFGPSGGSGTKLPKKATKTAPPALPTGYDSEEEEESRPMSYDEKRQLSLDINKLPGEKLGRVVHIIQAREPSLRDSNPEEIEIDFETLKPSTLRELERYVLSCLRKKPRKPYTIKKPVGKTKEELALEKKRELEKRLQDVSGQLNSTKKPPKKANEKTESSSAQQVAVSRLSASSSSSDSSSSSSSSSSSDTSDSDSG
Sequence of Tyrosine-protein kinase ABL1 (P00519 whole entry): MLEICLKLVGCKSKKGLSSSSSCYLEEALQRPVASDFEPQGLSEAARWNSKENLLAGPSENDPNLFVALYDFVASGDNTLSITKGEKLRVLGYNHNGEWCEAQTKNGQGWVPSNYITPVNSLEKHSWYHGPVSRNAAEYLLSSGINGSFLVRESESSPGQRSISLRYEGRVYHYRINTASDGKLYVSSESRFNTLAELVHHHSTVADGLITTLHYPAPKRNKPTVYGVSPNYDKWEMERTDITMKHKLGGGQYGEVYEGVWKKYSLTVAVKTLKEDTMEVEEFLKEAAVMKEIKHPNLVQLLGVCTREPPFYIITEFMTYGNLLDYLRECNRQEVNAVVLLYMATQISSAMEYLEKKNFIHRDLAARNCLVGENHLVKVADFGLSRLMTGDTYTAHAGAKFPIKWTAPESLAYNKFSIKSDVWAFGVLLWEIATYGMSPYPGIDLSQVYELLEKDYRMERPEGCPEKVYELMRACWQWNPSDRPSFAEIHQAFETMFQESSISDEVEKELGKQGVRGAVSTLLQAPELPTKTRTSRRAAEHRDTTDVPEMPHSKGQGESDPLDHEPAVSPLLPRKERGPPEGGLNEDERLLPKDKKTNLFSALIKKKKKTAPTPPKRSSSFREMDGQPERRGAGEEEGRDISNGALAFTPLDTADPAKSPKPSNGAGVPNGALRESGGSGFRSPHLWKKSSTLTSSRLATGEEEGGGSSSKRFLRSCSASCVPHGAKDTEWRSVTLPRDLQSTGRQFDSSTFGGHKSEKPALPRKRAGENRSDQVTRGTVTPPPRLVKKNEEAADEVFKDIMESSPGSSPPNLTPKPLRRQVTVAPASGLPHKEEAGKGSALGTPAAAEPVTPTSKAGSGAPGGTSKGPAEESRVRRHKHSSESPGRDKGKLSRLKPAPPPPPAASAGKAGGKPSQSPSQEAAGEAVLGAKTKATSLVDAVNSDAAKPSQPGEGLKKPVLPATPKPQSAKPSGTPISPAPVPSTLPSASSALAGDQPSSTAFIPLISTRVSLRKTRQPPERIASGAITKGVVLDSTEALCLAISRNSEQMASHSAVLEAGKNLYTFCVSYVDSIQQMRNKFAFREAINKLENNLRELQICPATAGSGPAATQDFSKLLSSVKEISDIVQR

Turning to `Cc1cc(C)cc([C@@H]2c3cc(C)ccc3NC(=O)CN2C(=O)c2ccc(Br)s2)c1`, the “% of inhibition” value in series [1] is recorded as -8%.

With `Nc1cnc(N2CCc3cc(S(=O)(=O)Nc4c(F)cc(Cl)cc4F)cc(N4CCCC4=O)c32)nc1` [TP-020n], the % of control came out at 49% in [2] and 97% in series [3].

`N#Cc1cccc(-c2c[nH]c3ncnc(N4CCOCC4)c23)c1` registered a % of control in series [4] of 86%.

Regarding `CC[C@@H]1[C@H](F)C(=O)N[C@@H]1COc1nccc2cc(C(N)=O)c(OC)cc12` [ZIMLOVISERTIB], the % of inhibition in [5] (at 0.01 µM) is -2.6%; in series [5] (at 0.04 µM), 9.8%; in [5] (at 0.2 µM), 1.9%; in series [5] (at 1 µM), -7.1%; in [5] (at 5 µM) it was -4.3%; in [6], 8.7%.

As for `CCc1cccc(CC)c1NC(=O)c1nn(C)c2c1CCc1cnc(Nc3ccc(C(=O)NC4CCN(C)CC4)cc3OC(F)(F)F)nc1-2`, in [7], the IC50 is more than 10 µM.

`Cc1cc(CN)cc(C)c1-c1ncn(C)c1-c1cncn1C` yielded a dTM in [8] of -1.04 K.

In the case of `C=CC(=O)Nc1cc(-n2c(=O)ccc3cnc4ccc(-c5ccc(NS(C)(=O)=O)cc5)cc4c32)ccc1C`, the values for the % of control in series [9] (at 1 µM) and in [9] (at 10 µM) were 80% and 100%, respectively.

Regarding `O[C@H]1CC[C@H](Nc2ncc3nc(Nc4c(F)cc(F)cc4F)n([C@H]4CCOC4)c3n2)CC1`, the % of control in series [10] is 57%.

The term IC50 denotes the concentration needed to halve the response being measured. High values mean weaker potency in that assay, low ones greater potency in that assay.
